Test results from patent US20070134349A1, “Methods of treating hematological malignancies” (DUKE UNIVERSITY, priority 2005, published 2007).

What was measured:
NB4 cells [1] = experiment: Differentiation markers CD11c/CD11b by flow cytometry in NB4 cells; type: cell-based; conditions: for NB4 differentiation: FIG. 10; for NB4 cell differentiation (CD11c): 21 h
Experimental: (§1) NB4 cells were provided by Dr. Ronald Evans (Salk Institute, La Jolla, Calif.). NB4-R4 cells were provided by Dr. Wilson Miller (McGill University, Montreal, Canada). HL-60, U-937, and Kasumi-1 cells were obtained from the American Type Culture Collection (Rockville, Md.). NB4 and NB4-R4 cells were grown in RPMI medium 1640 containing 10% fetal bovine serum. U-937 cells were grown in RPMI medium 1640 containing 10 mM HEPES, 1 mM sodium pyruvate, 4.5 g/L glucose, and 10% fetal bovine serum. HL-60 cells were grown in Iscove's Modified Dulbecco's medium containing 20% fetal bovine serum. Kasumi-1 cells were grown in RPMI medium 1640 containing 10 mM HEPES, 1 mM sodium pyruvate, 4.5 g/L glucose, and 20% fetal bovine serum.
(§2) To determine the percentage of cells that express differentiation markers, cells were washed once and resuspended in RPMI medium 1640 containing 3% fetal bovine serum. Phycoerythrin (PE)-conjugated CD11b, 5 Allophycocyanin (APC)-CD11c or control antibodies (BD Pharmingen, San Diego, Calif.) were added into cell suspension. After 30 minutes of incubation in the dark at 4° C., the cells were washed twice and resuspended in RPMI medium 1640 containing 7-amino actinomycin D (AAD) (for dead cell exclusion) and analyzed by FACScan (Becton Dickinson).

RARE-TK-Luc reporter = RARE-TK-Luc reporter transient transfection in NB4 cells; type: cell-based; conditions: ATRA 1 μM, 19 h
Experimental: Electroporation was performed using a Gene Pulser (BioRad, Hercules, Calif.) apparatus at 300 V and 960 μF capacity. […] Cells were harvested 19 h after transfection/treatment for luciferase and β-galactosidase activities.

PML-RARα = molecular target: T1, PML-RARα (Homo sapiens, UniProt P10276+P29590); experiment: Western blot of PML-RARα and RARα in NB4 cells; type: cell-based; conditions: 3 days
T1 construct: PML portion (fusion partner, UniProt P29590); endogenous in cells; host or cells: NB4 cells
T1 sequence (P29590+P10276 with tags, fused parts or gaps): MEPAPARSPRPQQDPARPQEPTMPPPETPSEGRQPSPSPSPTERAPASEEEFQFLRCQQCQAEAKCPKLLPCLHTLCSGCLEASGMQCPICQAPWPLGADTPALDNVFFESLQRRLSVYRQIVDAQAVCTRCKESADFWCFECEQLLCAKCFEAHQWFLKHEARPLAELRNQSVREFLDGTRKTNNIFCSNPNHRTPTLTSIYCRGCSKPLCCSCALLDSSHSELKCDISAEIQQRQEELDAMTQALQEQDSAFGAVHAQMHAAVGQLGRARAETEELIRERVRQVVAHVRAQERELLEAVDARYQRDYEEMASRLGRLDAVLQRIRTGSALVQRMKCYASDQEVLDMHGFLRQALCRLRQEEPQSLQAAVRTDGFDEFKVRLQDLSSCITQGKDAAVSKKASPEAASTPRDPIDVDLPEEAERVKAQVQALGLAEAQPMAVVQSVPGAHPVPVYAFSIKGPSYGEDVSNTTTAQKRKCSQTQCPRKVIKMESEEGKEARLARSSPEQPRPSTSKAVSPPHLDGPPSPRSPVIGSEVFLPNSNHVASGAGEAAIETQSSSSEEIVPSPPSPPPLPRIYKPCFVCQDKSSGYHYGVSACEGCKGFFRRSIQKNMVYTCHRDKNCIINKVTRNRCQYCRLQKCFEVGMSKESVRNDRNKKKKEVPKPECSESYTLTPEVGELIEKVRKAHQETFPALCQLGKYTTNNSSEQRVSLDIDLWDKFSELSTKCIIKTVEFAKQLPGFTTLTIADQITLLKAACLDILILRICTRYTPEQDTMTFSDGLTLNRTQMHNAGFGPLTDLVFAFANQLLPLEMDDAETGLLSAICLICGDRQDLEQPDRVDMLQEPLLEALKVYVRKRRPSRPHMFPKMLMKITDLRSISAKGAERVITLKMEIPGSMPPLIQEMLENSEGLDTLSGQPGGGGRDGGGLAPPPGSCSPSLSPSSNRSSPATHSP
Experimental: (§3) Whole-cell lysates were prepared by washing the cells with PBS and resuspending them in 1 ml of lysis buffer (1× phosphate-buffered saline, 1 mM EDTA, 1.5 mg/ml of iodoacetamide, 100 μM sodium orthovanadate, 0.5% Triton X-100, 20 mM β-glycerolphosphate, 0.2 mM phenylmethylsulfonyl fluoride, and 1× complete protease inhibitor cocktail). After clarification by a 15-min centrifugation in a microcentrifuge at 4° C., the resulting supernatant was collected. 20-50 μg of protein extracts were separated on a 10% SDS-polyacrylamide gel and transferred to a nitrocellulose membrane. The membrane was blocked with 5% nonfat milk followed by incubation with antibodies. The immunocomplex was visualized by chemiluminescence.

NB4-R4 cells = experiment: CD11c/CD11b expression by flow cytometry in ATRA-resistant NB4-R4 cells; type: cell-based; conditions: ATRA treatment, 3 days
Experimental: as §1, §2

NB4 cells [2] = experiment: Apoptosis by Annexin V binding (flow cytometry) in NB4 cells; type: cell-based
Experimental: as §1
(§4) To determine the percentage of cells that undergo apoptosis, after incubation with APC-CD11c antibody in the dark at 4° C., cells were washed twice with PBS and incubated at room temperature for 15 min with PE-conjugated Annexin-V (BD Pharmingen) and 7-AAD in binding buffer (10 mM HEPES, pH 7.4, 140 mM NaCI, 2.5 mM CaCl2) and analyzed by FACScan for CD11c expression and Annexin V binding. Apoptotic cells are those that stained positive for Annexin V and negative for 7-AAD.

H3 [3] = experiment: Western blot of phospho-H3 (Ser-10) in NB4 cells; type: cell-based; conditions: for H3 phosphorylation (Ser-10): NB4 cells, 24 h
Experimental: as §3

[4] = plasma, humans; cited from earlier work
[5] = in humans; cited from earlier work
C/EBPβ = experiment: Western blot of phospho-C/EBPβ (Thr-235) and C/EBPβ in NB4 cells; type: cell-based
Experimental: as §3

ERK1/2 [6] = experiment: Western blot of phospho-ERK1/2 in NB4 cells; type: cell-based; conditions: 24 h
Experimental: as §3

histones H3 and H4 = experiment: Western blot of acetylated histones H3 and H4 in NB4 cells; type: cell-based; conditions: concentrations required for apoptosis, NB4 cells, 24 h
Experimental: as §3

U-937 cells [7] = experiment: CD11c expression by flow cytometry in U-937 cells; type: cell-based; conditions: lower concentrations, 3 days
Experimental: as §1, §2

U-937 cells [8] = experiment: Annexin V binding in U-937 cells; type: cell-based; conditions: higher concentrations, 3 days
Experimental: as §1, §4

ERK1/2 [9] = experiment: Western blot of phospho-ERK1/2 in U-937 cells; type: cell-based; conditions: higher concentrations, 18 h, total ERK1/2 unaffected
Experimental: as §3

H3 [10] = experiment: Western blot of acetyl-H3 and phospho-H3 in U-937 cells; type: cell-based; conditions: higher concentrations, 18 h
Experimental: as §3

HL-60 cells = experiment: CD11c expression by flow cytometry in HL-60 cells; type: cell-based; conditions: 48 h
Experimental: as §1, §2

Kasumi-1 cells = experiment: CD11c expression by flow cytometry in Kasumi-1 cells; type: cell-based; conditions: 3 days
Experimental: as §1, §2

[11] = p38 inhibitor treatment of NB4 cells (data not shown)

With CCOCC(=O)O [ethoxyacetic acid] the NB4 differentiation (NB4 cells [1]; NB4 cells) was “potent inducers”.
With CC1=C(/C=C/C(C)=C/C=C/C(C)=C/C(=O)O)C(C)(C)CCC1 [ATRA, all-trans-Retinoic acid] the “effect on percentage of cells expressing CD11c compared with 1 nM MAA” value (NB4 cells [1]; 0.1 nM ATRA, NB4 cells, 24 h) was “same order of magnitude”, the “percentage of cells expressing CD11b” value (NB4 cells [1]; ATRA 10 nM alone, NB4 cells, 24 h, from 26%) was 51% and the “NB4 cell differentiation (CD11c)” value (NB4 cells [1]; ATRA 1 μM) was “can induce NB4 cell differentiation”. For the same compound, the “transcription of RARE-containing reporter gene (RARE-TK-Luc)” value (RARE-TK-Luc reporter) was “can activate transcription”, the “expression level of PML-RARα fusion protein” value (PML-RARα) was “induced the degradation” and the “sensitivity of NB4-R4 cells versus NB4 parental line (CD11c, CD11b)” value (NB4-R4 cells) was “less sensitive”.
For COCCC(=O)O [3-methoxypropionic acid], the NB4 differentiation (NB4 cells [1]; NB4 cells) was “potent inducers”.
For C[S+]([O-])c1ccc(-c2nc(-c3ccncc3)c(-c3ccc(F)cc3)[nH]2)cc1 (centres unmarked) [SB203580], the effect on apoptosis (NB4 cells [2]; [11]) was “little effect” and the “effect on H3 phosphorylation at Ser-10” value (H3 [3]; [11]) was “little effect”.
For O=C(CCCCCCC(=O)Nc1ccccc1)NO [SAHA, suberoylanilide hydroxamic acid], the differentiation (NB4 cells [1]; SAHA at lower concentrations, NB4 cells (data not shown)) was “facilitated differentiation” and the apoptosis (NB4 cells [2]; SAHA at higher concentrations, NB4 cells (data not shown)) was “effectively induced apoptosis”.
For CCCC(CCC)C(=O)O [VPA, valproic acid], the “percentage of NB4 cells expressing CD11c” value (NB4 cells [1]; NB4 cells, FIG. 9) was “did not significantly increase” and the apoptosis (NB4 cells [2]; as concentrations increase, NB4 cells, FIG. 9) was “potently induces apoptosis”.
With arsenic trioxide [ATO] the “apoptosis (Annexin V)” value (NB4 cells [2]; ATO 0.1 μM, 0.5 μM alone, NB4 cells, 3 days) was “does not induce significant amount of apoptosis” and the “expression level of PML-RARα fusion protein” value (PML-RARα) was “induced the degradation”.
With CCC(=O)O [propionic acid] the NB4 differentiation (NB4 cells [1]; NB4 cells) was “potent inducers”.
In the case of [Na+].[Na+].[Na+].[O]=[V]([O-])([O-])[O-] [sodium orthovanadate], the “apoptosis of NB4 cells in response to HDACI treatment” value (NB4 cells [2]; tyrosine phosphatase inhibitor treatment (data not shown)) is reported as “did not inhibit”.
In the case of Phenylbutyrate, the “half-life in vivo t1/2” value [4] is given as 60 min and the tolerability [5] is given as “well-tolerated”.
With CCCC(=O)O [BA, butyric acid] the “differentiation (CD11c)” value (NB4 cells [1]; BA 0.5 mM and 1 mM, NB4 cells, 24 h) was “differentiation was observed”, the “NB4 cell differentiation (CD11c)” value (NB4 cells [1]; BA 1 mM) was “can induce NB4 cell differentiation” and the “differentiation (CD11c)” value (NB4 cells [1]; BA 5 mM (or higher), NB4 cells, 24 h) was “failed to differentiate”. The NB4 differentiation (NB4 cells [1]; NB4 cells) was “potent inducers”, the “apoptosis (Annexin V)” value (NB4 cells [2]; BA 1 mM, NB4 cells, 21 h) was “effectively induces apoptosis” and the “level of phosphorylated C/EBPβ at Thr-235” value (C/EBPβ; 17 h) was “increases phosphorylation”. For the same compound, the “phosphorylation of C/EBPβ at Thr-235” value (C/EBPβ; lower concentrations, 24 h) was “maximal phosphorylation”, the “levels of phosphorylated ERK” value (ERK1/2 [6]; higher concentrations (no differentiating effects), total ERK not decreased) was “dramatically decreased” and the “constitutive levels of phosphorylated ERK” value (ERK1/2 [6]; lower concentrations) was “did not change”. For the same compound, the “H3 and H4 acetylation” value (histones H3 and H4) was “robust acetylation”, the “H3 phosphorylation (Ser-10)” value (H3 [3]; higher concentrations) was “dramatically increased” and the “H3 phosphorylation (Ser-10)” value (H3 [3]; lower concentrations) was “without effect”. For the same compound, the “expression of the differentiation marker CD11c” value (U-937 cells [7]) was “increasing expression”, the “apoptosis (Annexin V)” value (U-937 cells [8]) was “inducing apoptosis” and the “activity of ERK1/2 (phospho-ERK1/2)” value (ERK1/2 [9]) was “downregulate”. The “H3 acetylation and phosphorylation” value (H3 [10]) was “increase”, the “differentiation as evidenced by expression of CD11c” value (HL-60 cells) was “induce differentiation” and the “percentage of cells expressing CD11c” value (Kasumi-1 cells) was “increased”. The “half-life in vivo t1/2” value [4] was 6 min and the tolerability [5] was “well-tolerated”.
With N#CC(=C(/N)Sc1ccccc1N)/C(C#N)=C(\N)Sc1ccccc1N [U0126] the ATRA-induced differentiation (NB4 cells [1]; U0126 pretreatment 2 h, then ATRA 1 μM 21 h, NB4 cells) was “less dramatic effect”, the “MAA and BA-dependent differentiation as assessed by CD11c expression” value (NB4 cells [1]; U0126 pretreatment 2 h, then MAA 5 mM or BA 1 mM 21 h, NB4 cells) was “dramatically reduced” and the “number of BA-treated cells undergoing apoptosis” value (NB4 cells [2]) was “significantly increased”. The “MAA- or BA-induced phosphorylation of C/EBPβ at Thr-235” value (C/EBPβ; U0126 5 μM, 17 h, absolute protein level unchanged) was “blocks”.
